# How the values were obtained:
# Estrogen receptor = target: T1, Estrogen receptor (Rattus norvegicus, UniProt P06211)
# T1 sequence (P06211 whole entry): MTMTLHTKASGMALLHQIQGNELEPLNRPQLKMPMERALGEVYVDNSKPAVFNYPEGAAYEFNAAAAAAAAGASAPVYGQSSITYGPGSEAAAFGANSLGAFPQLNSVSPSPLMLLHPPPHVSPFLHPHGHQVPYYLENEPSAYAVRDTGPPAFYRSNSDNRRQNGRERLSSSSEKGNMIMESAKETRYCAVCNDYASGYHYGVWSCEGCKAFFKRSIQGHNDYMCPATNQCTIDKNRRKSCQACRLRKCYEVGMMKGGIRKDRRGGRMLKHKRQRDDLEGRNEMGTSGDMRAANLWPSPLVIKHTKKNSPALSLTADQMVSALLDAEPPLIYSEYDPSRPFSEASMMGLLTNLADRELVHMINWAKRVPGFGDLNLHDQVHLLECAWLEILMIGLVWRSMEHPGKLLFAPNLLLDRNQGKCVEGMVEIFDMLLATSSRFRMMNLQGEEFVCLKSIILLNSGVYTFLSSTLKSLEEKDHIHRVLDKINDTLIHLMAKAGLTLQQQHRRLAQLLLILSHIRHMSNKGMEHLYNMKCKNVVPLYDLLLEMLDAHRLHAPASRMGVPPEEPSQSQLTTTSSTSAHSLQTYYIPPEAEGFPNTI
# [1] = target: Progesterone receptor (Homo sapiens) (UniProt P06401)
# Sequence of Progesterone receptor (Homo sapiens) (P06401 whole entry, looked up): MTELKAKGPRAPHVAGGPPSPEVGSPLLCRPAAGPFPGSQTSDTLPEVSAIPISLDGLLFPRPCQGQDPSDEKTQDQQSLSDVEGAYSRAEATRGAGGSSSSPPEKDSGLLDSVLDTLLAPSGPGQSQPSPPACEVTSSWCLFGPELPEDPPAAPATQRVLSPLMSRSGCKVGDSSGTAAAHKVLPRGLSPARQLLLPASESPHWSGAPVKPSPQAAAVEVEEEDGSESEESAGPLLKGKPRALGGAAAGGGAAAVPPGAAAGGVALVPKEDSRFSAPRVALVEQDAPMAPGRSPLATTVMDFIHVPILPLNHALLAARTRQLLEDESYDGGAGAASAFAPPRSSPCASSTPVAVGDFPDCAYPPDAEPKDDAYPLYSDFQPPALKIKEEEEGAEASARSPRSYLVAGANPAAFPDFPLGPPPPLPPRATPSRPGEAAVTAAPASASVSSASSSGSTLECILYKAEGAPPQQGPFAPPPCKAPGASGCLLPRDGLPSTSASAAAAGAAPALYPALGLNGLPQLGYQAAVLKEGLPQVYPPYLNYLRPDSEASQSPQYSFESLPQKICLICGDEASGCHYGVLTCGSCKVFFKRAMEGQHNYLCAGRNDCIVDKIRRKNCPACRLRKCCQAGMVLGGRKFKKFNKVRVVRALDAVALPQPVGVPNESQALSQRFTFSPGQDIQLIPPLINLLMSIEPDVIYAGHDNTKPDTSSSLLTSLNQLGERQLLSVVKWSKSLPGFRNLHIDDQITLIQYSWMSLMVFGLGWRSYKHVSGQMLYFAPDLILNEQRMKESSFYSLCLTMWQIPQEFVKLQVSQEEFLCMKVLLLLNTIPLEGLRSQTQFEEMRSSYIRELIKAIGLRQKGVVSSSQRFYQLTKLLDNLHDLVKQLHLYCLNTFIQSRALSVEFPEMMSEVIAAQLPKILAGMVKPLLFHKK
# Glucocorticoid receptor = target: T2, Glucocorticoid receptor (Rattus norvegicus, UniProt P06536)
# T2 sequence (P06536 whole entry): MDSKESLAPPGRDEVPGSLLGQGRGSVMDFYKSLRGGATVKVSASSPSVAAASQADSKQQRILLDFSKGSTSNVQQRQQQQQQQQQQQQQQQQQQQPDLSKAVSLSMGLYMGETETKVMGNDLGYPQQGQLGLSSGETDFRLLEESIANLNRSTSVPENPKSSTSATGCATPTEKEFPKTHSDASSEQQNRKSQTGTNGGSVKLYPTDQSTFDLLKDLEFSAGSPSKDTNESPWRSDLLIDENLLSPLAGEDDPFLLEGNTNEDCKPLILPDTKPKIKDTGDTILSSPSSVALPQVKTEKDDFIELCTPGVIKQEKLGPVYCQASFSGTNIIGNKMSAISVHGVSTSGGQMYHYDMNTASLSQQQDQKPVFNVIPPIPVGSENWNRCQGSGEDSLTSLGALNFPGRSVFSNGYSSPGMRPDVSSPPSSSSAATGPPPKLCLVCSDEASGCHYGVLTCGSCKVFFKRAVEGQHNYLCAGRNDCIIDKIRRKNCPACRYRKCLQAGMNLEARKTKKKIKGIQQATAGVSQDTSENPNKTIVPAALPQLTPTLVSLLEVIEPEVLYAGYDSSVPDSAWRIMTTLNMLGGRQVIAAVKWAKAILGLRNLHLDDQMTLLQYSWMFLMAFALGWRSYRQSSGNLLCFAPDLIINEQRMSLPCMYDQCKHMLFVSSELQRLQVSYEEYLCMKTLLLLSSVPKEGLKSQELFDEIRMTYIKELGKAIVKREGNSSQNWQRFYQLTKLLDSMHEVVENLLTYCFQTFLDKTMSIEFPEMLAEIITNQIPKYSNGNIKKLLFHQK
# [2] = target: T3, Mineralocorticoid receptor (Rattus norvegicus, UniProt P22199)
# T3 sequence (P22199 whole entry): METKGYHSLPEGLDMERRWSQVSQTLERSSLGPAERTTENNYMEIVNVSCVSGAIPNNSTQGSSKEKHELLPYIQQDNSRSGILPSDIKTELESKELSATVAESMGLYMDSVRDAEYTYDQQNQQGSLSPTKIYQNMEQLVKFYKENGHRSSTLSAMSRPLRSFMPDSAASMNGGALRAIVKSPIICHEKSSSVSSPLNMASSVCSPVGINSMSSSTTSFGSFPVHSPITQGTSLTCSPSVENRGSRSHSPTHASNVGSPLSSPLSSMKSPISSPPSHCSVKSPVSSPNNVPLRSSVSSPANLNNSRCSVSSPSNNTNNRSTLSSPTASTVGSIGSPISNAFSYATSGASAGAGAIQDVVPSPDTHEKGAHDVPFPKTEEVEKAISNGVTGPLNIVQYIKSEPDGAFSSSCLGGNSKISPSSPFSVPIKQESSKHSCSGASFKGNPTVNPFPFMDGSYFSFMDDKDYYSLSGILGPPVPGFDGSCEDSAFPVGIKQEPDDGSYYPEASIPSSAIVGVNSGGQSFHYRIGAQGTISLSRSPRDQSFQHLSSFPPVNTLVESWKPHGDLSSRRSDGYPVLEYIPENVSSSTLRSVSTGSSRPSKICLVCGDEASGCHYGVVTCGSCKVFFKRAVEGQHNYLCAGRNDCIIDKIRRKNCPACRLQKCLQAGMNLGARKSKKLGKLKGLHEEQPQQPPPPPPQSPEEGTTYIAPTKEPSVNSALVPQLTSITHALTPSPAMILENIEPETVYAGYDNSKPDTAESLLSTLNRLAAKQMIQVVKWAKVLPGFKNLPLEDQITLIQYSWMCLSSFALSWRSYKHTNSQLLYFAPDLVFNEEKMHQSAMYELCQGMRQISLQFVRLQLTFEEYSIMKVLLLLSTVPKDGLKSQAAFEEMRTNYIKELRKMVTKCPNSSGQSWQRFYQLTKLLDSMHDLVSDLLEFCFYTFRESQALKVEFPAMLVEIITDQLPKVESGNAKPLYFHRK
# Estrogen receptor beta = Estrogen receptor beta (Homo sapiens, UniProt Q92731)
# Sequence of Estrogen receptor beta (Q92731 whole entry): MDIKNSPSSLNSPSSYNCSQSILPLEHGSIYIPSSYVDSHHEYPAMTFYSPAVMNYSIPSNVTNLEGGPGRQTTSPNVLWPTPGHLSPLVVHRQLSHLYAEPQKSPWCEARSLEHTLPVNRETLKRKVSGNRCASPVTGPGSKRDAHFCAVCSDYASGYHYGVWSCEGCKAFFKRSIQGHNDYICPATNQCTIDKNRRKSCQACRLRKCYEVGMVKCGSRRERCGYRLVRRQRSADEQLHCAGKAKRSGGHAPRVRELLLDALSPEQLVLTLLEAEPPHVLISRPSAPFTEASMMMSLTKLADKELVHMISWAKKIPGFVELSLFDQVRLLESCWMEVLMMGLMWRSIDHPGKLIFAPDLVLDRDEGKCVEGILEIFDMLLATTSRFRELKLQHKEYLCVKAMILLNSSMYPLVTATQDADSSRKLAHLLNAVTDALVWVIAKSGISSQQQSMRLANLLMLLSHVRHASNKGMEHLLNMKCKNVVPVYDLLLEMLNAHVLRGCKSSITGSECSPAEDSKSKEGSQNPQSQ
# [3] = target: T4, Thyroid hormone receptor alpha (Rattus norvegicus, UniProt P63059)
# T4 sequence (P63059 whole entry): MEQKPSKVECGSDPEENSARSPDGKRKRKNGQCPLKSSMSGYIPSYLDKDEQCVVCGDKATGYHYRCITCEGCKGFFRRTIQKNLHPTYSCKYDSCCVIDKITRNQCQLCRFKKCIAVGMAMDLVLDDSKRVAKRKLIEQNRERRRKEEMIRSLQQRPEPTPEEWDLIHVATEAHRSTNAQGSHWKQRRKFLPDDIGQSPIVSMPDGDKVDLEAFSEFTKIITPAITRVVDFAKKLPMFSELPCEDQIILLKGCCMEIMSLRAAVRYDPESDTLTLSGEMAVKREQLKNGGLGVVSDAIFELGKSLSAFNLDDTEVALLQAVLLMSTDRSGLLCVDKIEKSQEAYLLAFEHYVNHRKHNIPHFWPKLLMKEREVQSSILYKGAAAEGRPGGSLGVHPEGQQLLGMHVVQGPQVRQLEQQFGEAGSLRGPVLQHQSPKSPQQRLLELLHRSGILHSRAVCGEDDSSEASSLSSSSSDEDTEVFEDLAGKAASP
# [4] = target: T5, Thyroid hormone receptor beta (Rattus norvegicus, UniProt P18113)
# T5 sequence (P18113 whole entry): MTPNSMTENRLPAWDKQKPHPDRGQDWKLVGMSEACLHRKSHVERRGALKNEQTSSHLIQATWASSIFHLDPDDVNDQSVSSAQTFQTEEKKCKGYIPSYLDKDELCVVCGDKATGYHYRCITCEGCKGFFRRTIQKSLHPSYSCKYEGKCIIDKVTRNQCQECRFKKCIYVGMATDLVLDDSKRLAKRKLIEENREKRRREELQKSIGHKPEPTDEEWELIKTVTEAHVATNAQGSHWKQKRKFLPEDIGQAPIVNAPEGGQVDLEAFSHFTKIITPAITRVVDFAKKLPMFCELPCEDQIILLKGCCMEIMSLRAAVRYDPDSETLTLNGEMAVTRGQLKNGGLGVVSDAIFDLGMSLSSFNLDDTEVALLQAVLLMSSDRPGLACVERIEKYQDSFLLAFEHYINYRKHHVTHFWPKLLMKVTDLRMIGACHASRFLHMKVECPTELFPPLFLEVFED
Compound,Ki (Estrogen receptor),Ki [1],Ki (Glucocorticoid receptor),Ki [2],Ki (Estrogen receptor beta),Ki [3],Ki [4]
CC#C[C@]1(O)CC[C@H]2[C@@H]3CCC4=CC(=O)CCC4=C3[C@@H](c3ccc(N(C)CCO[C@H]4CCC5C(C4)C[C@@H](O)C4C5C[C@H](O)C5C(C(C)CCC(=O)O)CCC45)cc3)C[C@@]21C (stereo partly specified) [A-348441],12 nM,0.81 nM,0.27 nM,440 nM,110 nM,670 nM,1500 nM
CC#C[C@]1(O)CC[C@H]2[C@@H]3CCC4=CC(=O)CCC4=C3[C@@H](c3ccc(N(C)C)cc3)C[C@@]21C [CAS_84371-65-3],> 200 nM,,,640 nM,,> 1250 nM,> 2250 nM

# Source: BindingDB's records for doi:10.1124/jpet.104.081257 (Abbott Laboratories, 2005)
